Experimental data as given in ChEMBL document CHEMBL6127117, “Divergent Total Synthesis of Isoflavone Natural Products and Their Potential as Therapeutic Agents for TTR Amyloidosis” (J Nat Prod, 2024).
The source made the active and inactive calls. The rule behind the calls is not given here.

Key:
[1] = system: Transthyretin (Homo sapiens), P02766 [V50M]; assay: Inhibition of acid mediated TTR V30M mutant (unknown origin) aggregation under pH 4.7 at 20 uM measured upto 6 days by thioflavin-T fluorescence assay; conditions: time <= 6.0 day
[2] = target: Transthyretin (Homo sapiens) (UniProt P02766); assay: Binding affinity to TTR in human plasma assessed as stabilization of TTR tetramer by measuring fluorescence intensity measured after 6 hrs by absorbance based analysis; format: cell-free; conditions: dose 20-100 µM
[3] = target: Transthyretin (Homo sapiens) (UniProt P02766); assay: Binding affinity to TTR in human plasma assessed as stabilization of TTR tetramer by measuring fluorescence intensity at 100 uM measured after 6 hrs by absorbance based analysis relative to control; format: cell-free
[4] = target: Transthyretin (Homo sapiens) (UniProt P02766); assay: Binding affinity to TTR in human plasma assessed as stabilization of TTR tetramer by measuring fluorescence intensity at 50 uM measured after 6 hrs by absorbance based analysis relative to control; format: cell-free
[5] = target: Transthyretin (Homo sapiens) (UniProt P02766); assay: Binding affinity to TTR in human plasma assessed as stabilization of TTR tetramer by measuring fluorescence intensity at 20 uM measured after 6 hrs by absorbance based analysis relative to control; format: cell-free

Compound: CC(C)=CCc1c2c(c(O)c3c(=O)c(-c4ccc(O)c(O)c4)coc13)C=CC(C)(C)O2
- inhibition [1]: Active
- Activity [2]: Dose-Dependent Effect

Compound: CC(C)=CCOc1ccc(-c2coc3c4c(cc(O)c3c2=O)OC(C)(C)C=C4)cc1
- inhibition [1]: inactive
- Activity [2]: Dose-Dependent Effect

Compound: C=CC(C)(C)c1cc(-c2coc3cc4c(c(O)c3c2=O)C=CC(C)(C)O4)ccc1O
- inhibition [1]: inactive
- Activity [2]: Dose-Dependent Effect

Compound: CC(C)=CCOc1ccc(-c2coc3cc4c(c(O)c3c2=O)C=CC(C)(C)O4)cc1
- inhibition [1]: inactive
- Activity [2]: Dose-Dependent Effect

Compound: CC(C)=CCc1cc(-c2coc3c4c(cc(O)c3c2=O)OC(C)(C)C=C4)ccc1O
- inhibition [1]: inactive
- Activity [2]: Dose-Dependent Effect

Compound: CC1(C)C=Cc2c(cc(O)c3c(=O)c(-c4ccc(O)cc4)coc23)O1
- inhibition [1]: Active
- Activity [2]: Dose-Dependent Effect

Compound: CC1(C)C=Cc2c(cc3occ(-c4ccc(O)cc4)c(=O)c3c2O)O1
- inhibition [1]: Active
- Activity [2]: Dose-Dependent Effect

Compound: CC(C)=CCc1cc(-c2coc3cc4c(c(O)c3c2=O)C=CC(C)(C)O4)ccc1O
- inhibition [1]: inactive
- Activity [2]: Dose-Dependent Effect

Compound: CC(C)=CCc1c2c(c3occ(-c4ccc(O)cc4O)c(=O)c3c1O)C=CC(C)(C)O2
- inhibition [1]: Active
- Activity [2]: Dose-Dependent Effect
- Activity [3]: 35%
- Activity [4]: 50%
- Activity [5]: 70%
